Earlier results, collected in patent US20240165064A1, “LONG-LASTING RESORBABLE SUBCUTANEOUS IMPLANT WITH PROLONGED RELEASE OF PRE-CONCENTRATED PHARMACOLOGICALLY ACTIVE SUBSTANCE IN POLYMER FOR THE TREATMENT OF HYPOTHYROIDISM, AND METHOD” (priority 2021, published 2024).

System: patients with primary hypothyroidism
[1] = T3 group compared to T4 group, 6 weeks

SMILES: N[C@@H](Cc1cc(I)c(Oc2ccc(O)c(I)c2)c(I)c1)C(=O)O [T3, triiodothyronine]
- weight lost on average more than the group receiving T4 treatment (14 patients, three times a day for 6 weeks, T3 group compared to T4 group): 1.8 ± 1.9 kg
- decrease in low density cholesterol (non-HDL) [1]: 13.3±12.1%
- decrease in total cholesterol [1]: 10.9±10.0%
- reduction in apolipoprotein B [1]: 18.3±28.6%
- side effects (T3 treatment compared to T4 treatment, 6 weeks): without presenting significant side effects
